From US10526336B2, “Fused heteroaryl derivatives as orexin receptor antagonists” (Merck Sharp & Dohme Corp., priority 2014, dated 2020)

The compounds below were run against human orexin-2 receptor (Homo sapiens (Human), UniProt O43614) (assay: FLIPR Ca2+ Flux Assay, orexin-2 receptor antagonism in CHO cells). Settings: CHO cells expressing the human orexin-2 receptor; agonist 70 pM Ala-6,12 orexin-A; read-out: hOX2 FLIPR IC50.
Format: cell-based
Experimental: The utility of the compounds in accordance with the present invention as orexin receptor OX1R and/or OX2R antagonists may be readily determined without undue experimentation by methodology well known in the art, including the “FLIPR Ca^2+ Flux Assay” (Okumura et al., Biochem. Biophys. Res. Comm. 280:976-981, 2001). In a typical experiment the OX1 and OX2 receptor antagonistic activity of the compounds of the present invention was determined in accordance with the following experimental method. For intracellular calcium measurements, Chinese hamster ovary (CHO) cells expressing the rat orexin-1 receptor or the human orexin-2 receptor, are grown in Iscove's modified DMEM containing 2 mM L-glutamine, […], 1% hypoxanthine-thymidine supplement, 100 U/ml penicillin, 100 μg/ml streptomycin and 10% heat-inactivated fetal calf serum (FCS). The cells are seeded at 20,000 cells/well into Becton-Dickinson black 384-well clear bottom sterile plates coated with poly-D-lysine. All reagents are from GIBCO-Invitrogen Corp. The seeded plates are incubated overnight at 37° C. and 5% CO2. Ala-6,12 human orexin-A as the agonist is prepared as a 1 mM stock solution in 1% bovine serum albumin (BSA) and diluted in assay buffer (HBSS containing 20 mM HEPES, 0.1% BSA and 2.5 mM probenecid, pH7.4) for use in the assay at a final concentration of 70 pM. Test compounds are prepared as 10 mM stock solution in DMSO, then diluted in 384-well plates, first in DMSO, then assay buffer. On the day of the assay, cells are washed 3 times with 100 μl assay buffer and then incubated for 60 min (37° C., 5% CO2) in 60 μl assay buffer containing […] Fluo-4AM ester, 0.02% pluronic acid, and 1% BSA. The dye loading solution is then aspirated and cells are washed 3 times with 100 μl assay buffer. 30 μl of that same buffer is left in each well. Within the Fluorescent Imaging Plate Reader (FLIPR, Molecular Devices), test compounds are added to the plate in a volume of 25 μl, incubated for 5 min and finally 25 μl of agonist is added. Fluorescence is measured for each well at 1 second intervals for 5 minutes and the height of each fluorescence peak is compared to the height of the fluorescence peak induced by 70 pM Ala-6,12 orexin-A with buffer in place of antagonist. For each antagonist, IC50 value (the concentration of compound needed to inhibit 50% of the agonist response) is determined. Alternatively, compound potency can be assessed by a radioligand binding assay (described in Bergman et. al. Bioorg. Med. Chem. Lett. 2008, 18, 1425-1430) in which the inhibition constant (Ki) is determined in membranes prepared from CHO cells expressing either the OX1 or OX2 receptor. The intrinsic orexin receptor antagonist activity of a compound which may be used in the present invention may be determined by these assays.

Sequence of human orexin-2 receptor (O43614 whole entry): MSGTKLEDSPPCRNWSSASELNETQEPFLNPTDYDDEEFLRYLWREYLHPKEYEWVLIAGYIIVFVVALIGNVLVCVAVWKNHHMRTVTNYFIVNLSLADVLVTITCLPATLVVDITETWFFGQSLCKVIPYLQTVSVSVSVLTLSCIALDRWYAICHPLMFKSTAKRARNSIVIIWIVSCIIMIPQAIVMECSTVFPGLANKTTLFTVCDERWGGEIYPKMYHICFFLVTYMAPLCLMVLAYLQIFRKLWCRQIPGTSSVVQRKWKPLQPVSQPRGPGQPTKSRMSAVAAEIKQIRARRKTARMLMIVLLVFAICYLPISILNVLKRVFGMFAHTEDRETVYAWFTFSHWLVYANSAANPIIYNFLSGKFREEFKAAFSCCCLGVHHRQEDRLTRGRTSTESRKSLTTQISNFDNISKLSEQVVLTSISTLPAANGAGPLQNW

Row | SMILES | IC50 [nM]
1 | Cc1nc2ccnc(N[C@@H]3CC[C@@H](C)N(C(=O)c4ccccc4-n4nccn4)C3)n2n1 [Example 105, (2-(2H-1,2,3-triazol-2-yl)phenyl)((2R,5R)-2-methyl-5-((2-methyl-[1,2,4]triazolo[1,5-c]pyrimidin-5-yl)amino)piperidin-1-yl)methanone] | 27.6
2 | C[C@@H]1CC[C@@H](Oc2nccn3nccc23)CN1C(=O)c1ccc(F)cc1-n1nccn1 [Example 73, (4-fluoro-2-(2H-1,2,3-triazol-2-yl)phenyl)((2R,5R)-2-methyl-5-(pyrazolo[1,5-α]pyrazin-4-yloxy)piperidin-1-yl)methanone] | 14
3 | C[C@@H]1CC[C@@H](Oc2nccn3cncc23)CN1C(=O)c1ccccc1-n1nccn1 [Example 102, (2-(2H-1,2,3-triazol-2-yl)phenyl)((2R,5R)-5-(imidazo[1,5-a]pyrazin-8-yloxy)-2-methylpiperidin-1-yl)methanone] | 14
4 | C[C@@H]1CC[C@@H](Oc2nccn3ccnc23)CN1C(=O)c1ccccc1-n1nccn1 [Example 1, (2-(2H-1,2,3-triazol-2-yl)phenyl)((2R,5R)-5-(imidazo[1,2-a]pyrazin-8-yloxy)-2-methylpiperidin-1-yl)methanone] | 35.8
5 | CCOc1ccccc1C(=O)N1C[C@H](Oc2ccnc3ocnc23)CC[C@H]1C [Example 94, (2-ethoxyphenyl)((2R,5R)-2-methyl-5-(oxazolo[5,4-b]pyridin-7-yloxy)piperidin-1-yl)methanone] | 24.4
6 | Cc1cn2ccnc(O[C@@H]3CC[C@@H](C)N(C(=O)c4ccsc4-n4nccn4)C3)c2n1 [Example 7, (2-(2H-1,2,3-triazol-2-yl)thiophen-3-yl)((2R,5R)-2-methyl-5-((2-methylimidazo[1,2-a]pyrazin-8-yl)oxy)piperidin-1-yl)methanone] | 27.4
7 | C[C@@H]1CC[C@@H](Oc2nccn3c(C(F)(F)F)cnc23)CN1C(=O)c1ccccc1C1(C#N)CC1 [Example 59, 1-(2-((2R,5R)-2-methyl-5-((3-(trifluoromethyl)imidazo [1,2-α]pyrazin-8-yl)oxy)piperidine-1-carbonyl)phenyl) cyclopropanecarbonitrile] | 12.8
8 | C[C@@H]1CC[C@@H](Oc2nccn3c(C(F)(F)F)cnc23)CN1C(=O)c1ccccc1CS(C)(=O)=O [Example 61, ((2R,5R)-2-methyl-5-((3-(trifluoromethyl)imidazo [1,2-α]pyrazin-8-yl)oxy)piperidin-1-yl)(2-((methylsulfonyl)methyl)phenyl)methanone] | 170
9 | C[C@@H]1CC[C@@H](Oc2nccn3nccc23)CN1C(=O)c1cscc1-c1ncccn1 [Example 74, ((2R,5R)-2-methyl-5-(pyrazolo[1,5-α]pyrazin-4-yloxy)piperidin-1-yl)(4-(pyrimidin-2-yl)thiophen-3-yl) methanone] | 34.4
10 | Cc1cn2ccnc(N[C@@H]3CC[C@@H](C)N(C(=O)c4ccccc4-n4nccn4)C3)c2n1 [Example 19, (2-(2H-1,2,3-triazol-2-yl)phenyl)((2R,5R)-2-methyl-5-((2-methylimidazo[1,2-a]pyrazin-8-yl)amino)piperidin-1-yl)methanone] | 50.9
11 | Cc1cn2ccnc(O[C@@H]3CC[C@@H](C)N(C(=O)c4cscc4-c4ncccn4)C3)c2n1 [Example 13, ((2R,5R)-2-methyl-5-((2-methylimidazo[1,2-a]pyrazin-8-yl)oxy)piperidin-1-yl)(4-(pyrimidin-2-yl)thiophen-3-yl)methanone] | 63.7
12 | C[C@@H]1CC[C@@H](Nc2nccc3c2cnn3C)CN1C(=O)c1ccccc1-n1nccn1 [Example 96, (2-(2H-1,2,3-triazol-2-yl)phenyl)((2R,5R)-2-methyl-5-((1-methyl-1H-pyrazolo[4,3-c]pyridin-4-yl)amino)piperidin-1-yl)methanone] | 60
13 | COC(=O)c1ccccc1C(=O)N1C[C@H](Oc2nccn3nccc23)CC[C@H]1C [Example 79, methyl 2-((2R,5R)-2-methyl-5-(pyrazolo[1,5-α]pyrazin-4-yloxy)piperidine-1-carbonyl)benzoate] | 44.2
14 | C[C@@H]1CC[C@@H](Oc2nccn3cc(C(F)(F)F)nc23)CN1C(=O)c1ccccc1-n1nccn1 [Example 21, (2-(2H-1,2,3-triazol-2-yl)phenyl)((2R,5R)-2-methyl-5-((2-(trifluoromethyl)imidazo[1,2-a]pyrazin-8-yl)oxy)piperidin-1-yl)methanone] | 63.7
15 | Cc1cn2ccnc(O[C@@H]3CC[C@@H](C)N(C(=O)c4cscc4-n4nccn4)C3)c2n1 [Example 8, (4-(2H-1,2,3-triazol-2-yl)thiophen-3-yl)((2R,5R)-2-methyl-5-((2-methylimidazo[1,2-α]pyrazin-8-yl)oxy)piperidin-1-yl)methanone] | 39.1
16 | C[C@@H]1CC[C@@H](Oc2nccn3c(C(F)F)cnc23)CN1C(=O)c1ccccc1CS(C)(=O)=O [Example 39, ((2R,5R)-5-((3-(difluoromethyl)imidazo[1,2-a]pyrazin-8-yl)oxy)-2-methylpiperidin-1-yl)(2-((methylsulfonyl)methyl)phenyl)methanone] | 62.6
17 | C[C@@H]1CC[C@@H](Oc2nccn3nccc23)CN1C(=O)c1ccccc1-c1ncccn1 [Example 85, ((2R,5R)-2-methyl-5-(pyrazolo[1,5-a]pyrazin-4-yloxy)piperidin-1-yl)(2-(pyrimidin-2-yl)phenyl)methanone] | 15.5
18 | C[C@@H]1CC[C@@H](Oc2nccn3c(C(F)F)cnc23)CN1C(=O)c1ccccc1-n1nccn1 [Example 38, (2-(2H-1,2,3-triazol-2-yl)phenyl)((2R,5R)-5-((3-(difluoromethyl)imidazo[1,2-a]pyrazin-8-yl)oxy)-2-methylpiperidin-1-yl)methanone] | 17.6
19 | C[C@@H]1CC[C@@H](Nc2nccn3cc(C(F)(F)F)nc23)CN1C(=O)c1ccccc1-n1nccn1 [Example 22, (2-(2H-1,2,3-triazol-2-yl)phenyl)((2R,5R)-2-methyl-5-((2-(trifluoromethyl)imidazo[1,2-a]pyrazin-8-yl)amino)piperidin-1-yl)methanone] | 45.4
20 | C[C@@H]1CC[C@@H](Oc2nccn3c(C(F)(F)F)cnc23)CN1C(=O)c1ncccc1-c1ccccc1 [Example 62, ((2R,5R)-2-methyl-5-((3-(trifluoromethyl)imidazo [1,2-α]pyrazin-8-yl)oxy)piperidin-1-yl)(3-phenylpyridin-2-yl)methanone] | 46.7
21 | Cc1cn2ccnc(O[C@@H]3CC[C@@H](C)N(C(=O)c4ccccc4-n4ncnn4)C3)c2n1 [Example 11, (2-(2H-tetrazol-2-yl)phenyl)((2R,5R)-2-methyl-5-((2-methylimidazo[1,2-α]pyrazin-8-yl)oxy)piperidin-1-yl)methanone] | 22.2
22 | C[C@@H]1CC[C@@H](Oc2nccc3ncn(C)c23)CN1C(=O)c1ccccc1-n1nccn1 [Example 99, (2-(2H-1,2,3-triazol-2-yl)phenyl)((2R,5R)-2-methyl-5-((3-methyl-3H-imidazo[4,5-c]pyridin-4-yl)oxy)piperidin-1-yl)methanone] | 42.3
23 | COCc1ccccc1C(=O)N1C[C@H](Oc2nccn3c(C(F)F)cnc23)CC[C@H]1C [Example 45, ((2R,5R)-5-((3-(difluoromethyl)imidazo[1,2-α]pyrazin-8-yl)oxy)-2-methylpiperidin-1-yl)(2-(methoxymethyl)phenyl)methanone] | 108
24 | C[C@@H]1CC[C@@H](Oc2nccn3c(C(F)(F)F)cnc23)CN1C(=O)c1cccnc1OCC(F)(F)F [Example 63, ((2R,5R)-2-methyl-5-((3-(trifluoromethyl)imidazo [1,2-α]pyrazin-8-yl)oxy)piperidin-1-yl) (2-(2,2,2-trifluoroethoxy)pyridin-3-yl)methanone] | 28.2
25 | C[C@@H]1CC[C@@H](Oc2nccn3ccnc23)CN1C(=O)c1ccccc1CS(C)(=O)=O [Example 77, ((2R,5R)-5-(imidazo[1,2-α]pyrazin-8-yloxy)-2-methylpiperidin-1-yl)(2-((methylsulfonyl)methyl)phenyl) methanone] | 27.9
26 | C[C@@H]1CC[C@@H](Oc2nccc3c2ncn3C)CN1C(=O)c1ccccc1-n1nccn1 [Example 98, (2-(2H-1,2,3-triazol-2-yl)phenyl)((2R,5R)-2-methyl-5-((1-methyl-1H-imidazo[4,5-c]pyridin-4-yl)oxy)piperidin-1-yl)methanone] | 28.8
